According to patent US10428082B2, “Triazole derivatives of melampomagnolide B and methods of use thereof” (BioVentures, LLC, priority 2016, dated 2019):
Like-named read-outs stand apart in the source and are kept apart here.

Columns and labels:
[1] = tested on: NCI panel of 60 human cancer cell lines; test: NCI 60 growth inhibition, ranges over groups of cell lines; assay type: cell-based
Protocol: The above triazole derivatives of melampomagnolide B were evaluated for growth inhibitory properties against an NCI panel of 60 human cancer cell lines derived from nine human cancer cell types, grouped into disease sub-panels that represent leukemia, lung, colon, central nervous system (CNS), melanoma, renal, ovary, breast, and prostate cancer cells. Growth inhibitory (GI50) effects were measured as a function of the variation of optical density as a percentage of control.

[2] = tested on: SF-295; test: NCI 60 growth inhibition; assay type: cell-based, human; conditions: Homo sapiens; SF-295, CNS Cancer, Table 2
[3] = tested on: TK-10; test: NCI 60 growth inhibition; assay type: cell-based, human; conditions: Homo sapiens; TK-10, Renal Cancer, Table 2
[4] = tested on: COLO 205; test: NCI 60 growth inhibition; assay type: cell-based, human; conditions: Homo sapiens; COLO 205, Colon Cancer, Table 2
[5] = tested on: SNB-75; test: NCI 60 growth inhibition; assay type: cell-based, human; conditions: Homo sapiens; SNB-75, CNS Cancer, Table 2
[6] = tested on: OVCAR-8; test: NCI 60 growth inhibition; assay type: cell-based, human; conditions: Homo sapiens; OVCAR-8, Ovarian Cancer, Table 2
[7] = tested on: RXF 393; test: NCI 60 growth inhibition; assay type: cell-based, human; conditions: Homo sapiens
[8] = tested on: CCRF-CEM; test: NCI 60 growth inhibition; assay type: cell-based, human; conditions: Homo sapiens, Leukemia, Table 2
[9] = tested on: NCI-H23; test: NCI 60 growth inhibition; assay type: cell-based, human; conditions: Homo sapiens; NCI-H23, Non-Small Cell Lung Cancer, Table 2
[10] = tested on: HT29; test: NCI 60 growth inhibition; assay type: cell-based, human; conditions: Homo sapiens; HT-29, Colon Cancer, Table 2
[11] = tested on: EKVX; test: NCI 60 growth inhibition; assay type: cell-based, human; conditions: Homo sapiens, Non-Small Cell Lung Cancer, Table 2
[12] = tested on: OVCAR-4; test: NCI 60 growth inhibition; assay type: cell-based, human; conditions: Homo sapiens; OVCAR-4, Ovarian Cancer, Table 2
[13] = tested on: HOP-92; test: NCI 60 growth inhibition; assay type: cell-based, human; conditions: Homo sapiens; HOP-92, Non-Small Cell Lung Cancer, Table 2
[14] = tested on: UACC-257; test: NCI 60 growth inhibition; assay type: cell-based, human; conditions: Homo sapiens; UACC-257, Melanoma, Table 2
[15] = tested on: SK-MEL-28; test: NCI 60 growth inhibition; assay type: cell-based, human; conditions: Homo sapiens; SK-MEL-28, Melanoma, Table 2
[16] = tested on: T-47D; test: NCI 60 growth inhibition; assay type: cell-based, human; conditions: Homo sapiens, T47D, Breast Cancer, Table 2
[17] = tested on: BT-549; test: NCI 60 growth inhibition; assay type: cell-based, human; conditions: Homo sapiens; BT-549, Breast Cancer, Table 2
[18] = tested on: OVCAR-5; test: NCI 60 growth inhibition; assay type: cell-based, human; conditions: Homo sapiens; OVCAR-5, Ovarian Cancer, Table 2
[19] = tested on: HOP-62; test: NCI 60 growth inhibition; assay type: cell-based, human; conditions: Homo sapiens; HOP-62, Non-Small Cell Lung Cancer, Table 2
[20] = tested on: A549/ATCC; test: NCI 60 growth inhibition; assay type: cell-based, human; conditions: Homo sapiens, Non-Small Cell Lung Cancer, Table 2
[21] = tested on: NCI-H322M; test: NCI 60 growth inhibition; assay type: cell-based, human; conditions: Homo sapiens, Non-Small Cell Lung Cancer, Table 2
[22] = tested on: A498; test: NCI 60 growth inhibition; assay type: cell-based, human; conditions: Homo sapiens; A498, Renal Cancer, Table 2
[23] = tested on: KM12; test: NCI 60 growth inhibition; assay type: cell-based, human; conditions: Homo sapiens; KM12, Colon Cancer, Table 2
[24] = tested on: OVCAR-3; test: NCI 60 growth inhibition; assay type: cell-based, human; conditions: Homo sapiens; OVCAR-3, Ovarian Cancer, Table 2
[25] = tested on: primary AML cell line AML1; test: Anti-leukemic activity, Annexin V/7-AAD flow cytometry; assay type: cell-based, human; conditions: for EC50: Homo sapiens, AML1, 24 h, 24 h of drug exposure, read-out: AML#1 (EC50)
Protocol: (§1) The newly synthesized triazole derivatives of melampomagnolide B were screened for anti-leukemic activity against M9 ENL1 and primary AML cell lines; the latter were obtained with informed consent from human patients. Evaluations were performed after 24 h of drug exposure using flow cytometric analysis by labeling with Annexin V and 7-aminoactinomycin D (7-AAD) to delineate apoptotic cell populations. In all experiments PTL was included as a reference control.

[26] = tested on: primary AML cell line AML2; test: as above; assay type: cell-based, human; conditions: for EC50: Homo sapiens, 24 h, 24 h of drug exposure, read-out: AML#2 (EC50)
Protocol: as §1

[27] = tested on: NF-κB pathway; test: NF-κB inhibition by Western blot, phosphorylation of the P65 subunit; assay type: cell-based
Protocol: Also JVM 4-29 was evaluated for NF-κB inhibition by Western blot analysis; by determining its effect on the phosphorylation of the P65 subunit.

[28] = tested on: HO-1; test: Induction of HO-1 by Western blot assay; assay type: cell-based
[29] = all the cell lines in the leukemia sub-panel, read-out: GI50
[30] = most of the solid tumor cell lines in the panel, read-out: GI50
[31] = RXF 393, RXF 393, Renal Cancer, Table 2

SMILES | GI50 [1, 30] [nM] | GI50 [2] [nM] | GI50 [4] [nM] | GI50 [5] [nM] | GI50 [6] [nM] | GI50 [7, 31] [nM] | GI50 [8] [nM] | GI50 [9] [nM] | GI50 [10] [nM] | GI50 [11] [nM] | GI50 [12] [nM] | GI50 [13] [nM] | GI50 [14] [nM] | GI50 [15] [nM] | GI50 [16] [nM] | GI50 [17] [nM] | GI50 [18] [nM] | GI50 [19] [nM] | GI50 [20] [nM] | GI50 [21] [nM] | also measured
C=C1C(=O)O[C@H]2[C@H]1CC/C(Cn1cc(-c3cccc(Cl)c3)nn1)=C\CC[C@@]1(C)O[C@@H]21 [JVM 4-25, (1aR,7aS,10aS,10bS,E)-5((4-(3-Chlorophenyl)-1H-1,2,3-triazol-1-yl)methyl)-1a-methyl-8-methylene-2,3,6,7,7a,8,10a,10b-octahydrooxireno[2′,3′:9,10]cyclodeca[1,2-b]furan-9(1aH)-one] | 160 to 990 | 3410 | 410 | 1160 | 1310 | 550 | 200 | 1580 | 510 | 1570 | 1090 | 250 | 1420 | 350 | 830 | 770 | 1210 | 1940 | 1790 | 2170 | GI50 [1, 29]: 100 to 500 nM; GI50 [3]: 990 nM; GI50 [22]: 1520 nM; GI50 [23]: 1780 nM; GI50 [24]: 470 nM; EC50 [25]: 1000 nM; EC50 [26]: 1700 nM
C=C1C(=O)O[C@H]2[C@H]1CC/C(Cn1cc(-c3ccc(F)cc3)nn1)=C\CC[C@@]1(C)O[C@@H]21 [JVM 4-26] | 180 to 940 | 5730 | 450 | 1250 | 1660 | 870 | 240 | 1780 | 690 | 1490 | 1290 | 340 | 1470 | 820 | 740 | 830 | 1470 | 3040 | 3370 | 4390 | GI50 ([1]; leukemia cell lines CCRF-CEM, HL-60(TB), K-562, MOLT-4 and SR, read-out: growth inhibition values): 240 to 940 nM; GI50 [3]: 1240 nM; GI50 [22]: 1820 nM; GI50 [23]: 1700 nM; GI50 [24]: 490 nM; EC50 [25]: 1100 nM; EC50 [26]: 1900 nM
C=C1C(=O)O[C@H]2[C@H]1CC/C(Cn1cc(-c3cc(C(F)(F)F)cc(C(F)(F)F)c3)nn1)=C\CC[C@@]1(C)O[C@@H]21 [JVM 4-29, (1aR,7aS,10aS,10bS,E)-5-((4-(3,5-bis(Trifluoromethyl)phenyl)-1H-1,2,3-triazol-1-yl)methyl)-1a-methyl-8-methylene-2,3,6,7,7a,8,10a,10b-octahydrooxireno[2′,3′:9,10]cyclodeca[1,2-b]furan-9(1aH)-one] | 120 to 880 | 1190 | 140 | 1260 | 880 | 20 | 690 | 1120 | 190 | 1500 | 500 | 340 | 1460 | 460 | 330 | 170 | 1100 | 1560 | 1360 | 1670 | inhibition of the NF-κB pathway compared to parthenolide [27]: significantly more potency as an inhibitor of the NF-κB pathway when compared to parthenolide; GI50 [1, 29]: 100 to 500 nM; induction of HO-1 compared to PTL [28]: stronger induction of HO-1 when compared to PTL; GI50 ([7]; RXF 393, RXF 393 renal cancer cell line): 27 nM; GI50 [22]: 430 nM; GI50 [23]: 1040 nM; GI50 [24]: 150 nM; EC50 [25]: 400 nM; fold more cytotoxic compared to DMAPT ([25]; primary cell line AML1): 36.7 fold; fold more potent anti-leukemic activity than PTL ([25]; primary cell line AML1): 32.7 fold; fold more potent than the MMB ([25]; primary cell line AML1): 51.2 fold; EC50 [26]: 700 nM; fold more cytotoxic compared to DMAPT ([26]; primary cell line AML2): 16.1 fold; fold more potent anti-leukemic activity than PTL ([26]; primary cell line AML2): 14.8 fold; fold more potent than the MMB ([26]; primary cell line AML2): 34.7 fold
